Laboratory results published in patent US11970471B1, “3-(4-chlorophenyl)-5-{[5-methyl-2-(propan-2-yl)phenoxy]methyl }- 1,2,4-oxadiazole as an antitumor and antimicrobial compound” (KING FAISAL UNIVERSITY, priority 2023, dated 2024).

Key:
[1] = test system: Human prostate cancer cells (PC3); assay: Cytotoxicity by SRB assay, PC3 cells; assay type: cell-based; conditions: 0.01 μM to 100 μM for 72 h
Experimental: (§1) Human prostate cancer cells (PC3) and human osteosarcoma cells (MG-63) were obtained from Nawah Scientific Inc. (Mokatam, Cairo, Egypt) and cultured in DMEM (Dulbecco's modified eagle's medium), Gibco, USA, supplemented with fetal bovine serum (FBS) at a concentration of 10% and 100 U/mL of penicillin and streptomycin (PS). The cells were incubated at 37° C. in a humidified environment that contained 5% CO2. Cells were seeded in 96-well plates as aliquots of 100 μL cell suspension and incubated in a complete media for 24 h. afterward, cells were treated with 3-(4-chlorophenyl)-5-{[5-methyl-2-(propan-2-yl)phenoxy]methyl}-1,2,4-oxadiazole at diverse concentrations ranging from 0.01 μM to 100 μM for 72 h. Then, cells were fixed at 4° C. for one hour with 150 μL of 10% trichloroacetic acid (TCA). After washing the cells five times with distilled water, 70 μL of sulforhodamine (SRB) solution (0.4% w/v) was added and incubated for 10 min at room temperature in a dark place. […] Then, 150 μL of Tris pH 10.5 (10 mM) was added, and the absorbance was measured at 540 nm using a BMG LABTECH®-FLUOstar Omega microplate reader (Ortenberg, Germany). Half maximal inhibitory concentrations (IC50) values were calculated for each experiment using GraphPad Prism 6 software. […] The inhibition was calculated using the following equation: Inhibition %=100−Average Viability

[2] = test system: human osteosarcoma cells (MG-63); assay: Cytotoxicity by SRB assay, MG-63 cells; assay type: cell-based; conditions: 0.01 μM to 100 μM for 72 h
Experimental: as §1

- melting point: 166 to 167 °C
SMILES: Cc1ccc(C(C)C)c(OCc2nc(-c3ccc(Cl)cc3)no2)c1 [3-(4-chlorophenyl)-5-{[5-methyl-2-(propan-2-yl)phenoxy]methyl}-1,2,4-oxadiazole]
- antiproliferative activity [1]: excellent antiproliferative activities
- antiproliferative activity [2]: excellent antiproliferative activities
